Results: patent publication US8835446B2, “Quinazoline derivatives and pharmaceutical compositions thereof” (Nippon Shinyaku Co., Ltd., priority 2005, dated 2014)
Where two headings read alike, the source gives them in different places.

Assays:
Rabbits = settings: rabbit, in vivo
From the text: Then, erythema and edema formation at the application site was observed. […] The mean value of the sum of erythema and edema scores was used as a simple primary skin irritation index. […]

Mice [1] = assay: Acute toxicity test in mice; format: in vivo, mouse; settings: intravenous, 10 mg/kg; observed for 2 hours
From the text: Male ICR mice at the age of 4 to 6 weeks were used.

Mice [2] = assay: Effect on scratching behavior induced by serotonin application in mice; format: in vivo, mouse; settings: counted for 15 minutes
Description: To the cervical and dorsal area of male ICR mice (n=3 to 6) at the age of 4 to 6 weeks, 100 μl of a solution obtained by dissolving serotonin hydrochloride in ethanol at 0.1% (hereinafter referred to as serotonin) was applied, and the number of scratching behavior at the application site with the hind legs occurring immediately after the application was counted for 15 minutes after administration with a counter. Administration of a test compound was carried out by skin application, intravenous administration or oral administration. In the case of skin application, the test compound that was dissolved in ethanol was applied in an amount of 100 μl concurrently with serotonin. In the case of intravenous administration, the test compound that was dissolved in physiological saline was administered at a dose of 10 ml/kg at 5 minutes prior to the serotonin application. In the case of oral administration, the test compound that was dissolved in distilled water was administered at a dose of 10 ml/kg at 20 minutes prior to the serotonin application. The control group of each administration route was given the respective solvent, and the values of scratching behavior were compared between the control group and the test compound group.
The results obtained by skin application of the test compound are shown in Table 3; the results obtained by intravenous administration of the test compound are shown in Table 4; and the results obtained by oral administration of the test compound are shown in Table 5.

[3] = skin application, concentration 0.1% in ethanol, concurrently with serotonin

SMILES | Simple primary skin irritation index (Rabbits; female, Kbs: JW, 24 h) | Average number of scratching behavior (Mice [2]; [3]) | further results
CON=C(N)N[C@@H]1CCCC[C@@H]1Nc1nc(C(=O)NCC(C)C)nc2ccc(C)cc12.Cl.Cl [Example 211, 4-[((1S,2R)-2-{[amino(methoxyimino)methyl]amino}cyclohexyl)amino]-N-isobutyl-6-methylquinazolin-2-carboxamide dihydrochloride] | 1.5 | 73.0 | Change in behavior (Mice [1]): No obvious change
Cc1ccc2nc(C(=O)NCC(C)C)nc(N[C@H]3CCCC[C@H]3NC(N)=NO)c2c1.Cl.Cl [Example 212, 4-[((1S,2R)-2-{[amino(hydroxyimino)methyl]amino}cyclohexyl)amino]-N-isobutyl-6-methylquinazolin-2-carboxamide dihydrochloride] | 0.8 | 49.8 | Change in behavior (Mice [1]): No obvious change
COCCNC(=O)c1nc(N[C@H]2CCCC[C@H]2NC(N)=NOC)c2cc(C)ccc2n1.COCCNC(=O)c1nc(N[C@H]2CCCC[C@H]2NC(N)=NOC)c2cc(C)ccc2n1.O=S(=O)(O)O [Example 248, 4-[((1S,2R)-2-{[amino(methoxyimino)methyl]amino}cyclohexyl)amino]-N-(2-methoxyethyl)-6-methylquinazolin-2-carboxamide 1/2 sulfate] |  |  | Simple primary skin irritation index (Rabbits): 0.8
COCCNC(=O)c1nc(N[C@H]2CCCC[C@H]2NC(=N)N)c2cc(C)ccc2n1.Cl.Cl [Comparative control F, 4-[((1S,2R)-2-{[amino(imino)methyl]amino}cyclohexyl)amino]-N-(2-methoxyethyl)-6-methylquinazoline-2-carboxamide dihydrochloride, reference compound] | 2.2 |  | 
COCCCNC(=O)c1nc(N[C@H]2CCCC[C@H]2NC(C)=N)c2cc(C)ccc2n1.Cl.Cl [Example 92, 4-{[(1S,2R)-2-(ethanimidoylamino)cyclohexyl]amino}-N-(3-methoxypropyl)-6-methylquinazolin-2-carboxamide dihydrochloride] | 0.0 | 76.3 | Change in behavior (Mice [1]): No obvious change; Average number of scratching behavior (Mice [2]; oral administration, dose 30 mg/kg, 20 minutes prior to serotonin): 141.0
COCCCNC(=O)c1nc(N[C@H]2CCCC[C@H]2NC(=N)N)c2cc(C)ccc2n1.Cl.Cl [Comparative control D, 4-[((1S,2R)-2-{[amino(imino)methyl]amino}cyclohexyl)amino]-N-(3-methoxypropyl)-6-methylquinazoline-2-carboxamide dihydrochloride, reference compound] | 2.0 |  | 
Cc1ccc2nc(C(=O)NC(C)C)nc(N[C@H]3CCCC[C@H]3NC(=N)N)c2c1.Cl.Cl [Comparative control E, 4-[((1S,2R)-2-{[amino(imino)methyl]amino}cyclohexyl)amino]-N-isopropyl-6-methylquinazoline-2-carboxamide dihydrochloride, reference compound] | 3.6 |  | 
COC(C)(C)C(=N)N[C@@H]1CCCC[C@@H]1Nc1nc(C(=O)NCC(C)(C)C)nc2ccc(C)cc12.Cl.Cl [Example 19, N-(2,2-dimethylpropyl)-4-({(1S,2R)-2-[(2-methoxy-2-methylpropanimidoyl)amino]cyclohexyl}amino)-6-methylquinazolin-2-carboxamide dihydrochloride] | 0.4 | 69.2 | 
CON(C)C(=N)N[C@@H]1CCCC[C@@H]1Nc1nc(C(=O)NCC(C)C)nc2ccc(C)cc12.Cl.Cl [Example 236, 4-{[(1S,2R)-2-({imino[methoxy(methyl)amino]methyl}amino)cyclohexyl]amino}-N-isobutyl-6-methylquinazolin-2-carboxamide dihydrochloride] | 1.6 |  | 
CCOCCNC(=O)c1nc(N[C@H]2CCCC[C@H]2NC(=N)N)c2cc(C)ccc2n1.Cl.Cl [Comparative control C, 4-[((1S,2R)-2-{[amino(imino)methyl]amino}cyclohexyl)amino]-N-(2-ethoxyethyl)-6-methylquinazoline-2-carboxamide dihydrochloride, reference compound] | 2.3 |  | 
CCOCCNC(=O)c1nc(N[C@H]2CCCC[C@H]2NC(C)=N)c2cc(C)ccc2n1.Cl.Cl [Example 94, 4-{[(1S,2R)-2-(ethanimidoylamino)cyclohexyl]amino}-N-(2-ethoxyethyl)-6-methylquinazolin-2-carboxamide dihydrochloride] | 1.0 |  | 
COCCNC(=O)c1nc(N[C@H]2CCCC[C@H]2NC(=N)COC)c2cc(C)ccc2n1.Cl.Cl [Example 91, 4-({(1S,2R)-2-[(2-methoxyethanimidoyl)amino]cyclohexyl}amino)-N-(2-methoxyethyl)-6-methylquinazolin-2-carboxamide dihydrochloride] | 0.5 | 70.5 | 
COCCCNC(=O)c1nc(N[C@H]2CCCC[C@H]2NC(=N)COC)c2cc(C)ccc2n1.Cl.Cl [Example 93, 4-({(1S,2R)-2-[(2-methoxyethanimidoyl)amino]cyclohexyl}amino)-N-(3-methoxypropyl)-6-methylquinazolin-2-carboxamide dihydrochloride] | 0.2 |  | 
Cc1ccc2nc(C(=O)NCC(C)(C)C)nc(N[C@H]3CCCC[C@H]3NC(=N)N)c2c1.Cl.Cl [Comparative control B, 4-[((1S,2R)-2-{[amino(imino)methyl]amino}cyclohexyl)amino]-6-methyl-N-neopentyl quinazoline-2-carboxamide dihydrochloride, reference compound] |  |  | Simple primary skin irritation index (Rabbits): 2.4
CCOCCNC(=O)c1nc(N[C@H]2CCCC[C@H]2NC(=N)COC)c2cc(C)ccc2n1.Cl.Cl [Example 95, N-(2-ethoxyethyl)-4-({(1S,2R)-2-[(2-methoxyethanimidoyl)amino]cyclohexyl}amino)-6-methylquinazolin-2-carboxamide dihydrochloride] | 0.7 |  | 
CCOCCNC(=O)c1nc(N[C@H]2CCCC[C@H]2NC(=N)CCO)c2cc(C)ccc2n1.Cl.Cl [Example 61, N-(2-ethoxyethyl)-4-({(1S,2R)-2-[(3-hydroxypropanimidoyl)amino]cyclohexyl}amino)-6-methylquinazolin-2-carboxamide dihydrochloride] | 0.4 |  | 
COCCCNC(=O)c1nc(N[C@H]2CCCC[C@H]2NC(=N)CCOC)c2cc(C)ccc2n1.Cl.Cl [Example 35, 4-({(1S,2R)-2-[(3-methoxypropanimidoyl)amino]cyclohexyl}amino)-N-(3-methoxypropyl)-6-methylquinazolin-2-carboxamide dihydrochloride] | 1.5 | 69.0 | 
COCCCNC(=O)c1nc(N[C@H]2CCCC[C@H]2NC(=N)CCO)c2cc(C)ccc2n1.Cl.Cl [Example 59, 4-({(1S,2R)-2-[(3-hydroxypropanimidoyl)amino]cyclohexyl}amino)-N-(3-methoxypropyl)-6-methylquinazolin-2-carboxamide dihydrochloride] | 0.2 | 57.8 | 
